Where two headings read alike, the source gives them in different places.
Settings: mouse, in vivo; for Urine and Feces, percent of total injected radioactivity: iv

Substance	Localization / excretion of the complex (in words)	Urine and Feces, percent of total injected radioactivity (0 h)	Urine and Feces, percent of total injected radioactivity (0.5 h)	Urine and Feces, percent of total injected radioactivity (1 h)	Urine and Feces, percent of total injected radioactivity (2 h)	Urine and Feces, percent of total injected radioactivity (24 h)	Urine and Feces, percent of total injected radioactivity (4 h)
Tc-99m-1,5-diaminopentylphosphonic acid	high uptake of the complex by the kidney without rapid excretion	0.0	47.3	55.0	61.3	83.2	
Tc-99m-1-aminobutylphosphonic acid	rapidly excreted via the kidney	0.0	74.2	85.0	90.7		86.6

Reference: patent US3976762A (priority 1974, dated 1976)
